Assay results: patent publication US20260325655A1, “DECREASING THE INTRINSICALLY DISORDERED PROTEIN ALPHA-SYNUCLEIN’S LEVELS BY TARGETING ITS STRUCTURED MRNA WITH A RIBONUCLEASE TARGETING CHIMERA” (University of Florida Research Foundation, Incorporated, priority 2023, published 2026)

Columns and labels:
Format in all cases: cell-based, human
[1] = test system: control luciferase reporter lacking an IRE; assay: control luciferase reporter lacking an IRE; settings: reporter lacks IRE / SNCA-UTR sequence
Source text: (§1) Plasmid constructs and establishment of reporter gene overexpressing cells. Construction of pIRES-Luc-EGFP-puro plasmid and pCDH-α-syn-5′-UTR-Luc-EGFP-puro plasmid used in 5′ UTR-luciferase-based selectivity assay were previously described.^4 Briefly, In-Fusion PCR cloning system (Takara Bio, Mountain View, CA, USA) was used for all plasmid constructions per the manufacturer's instructions. To ensure sequence accuracy, all plasmids generated in this study were confirmed by sequencing.
(§2) Luciferase assay. The effect of compounds on translation of SNCA IRE-containing transcript was measured by using a luciferase reporter assay. HeLa cells (~60% confluency) were transfected with plasmids (2 μg per 60 mm dish) by using JetPrime (Polyplus Transfection) according to the manufacturer's recommended procedures. Approximately 16 h after transfection, the transfection cocktail was removed, and the cells were trypsinized and seeded to 96-well plates (8,000 cells per well). After 6 h, cells were treated as described in Cell Culture. To measure the luciferase signals, the cells were then washed with 1× DPBS, and luciferase activity in each well was measured by using the ONE-Glo Luciferase Assay System (Promega) per the manufacturer's instructions. Luminescence from firefly luciferase reaction was measured using a Biomek FLx800 plate reader.

[2] = test system: ferritin; assay: ferritin protein in SH-SY5Y cells by Western blot
Method: (§3) Western blotting. After 48 h, cells were gently washed with ice-cold 1× DPBS, and total protein was extracted with Mammalian Protein Extraction Reagent (M-PER, Thermo Scientific) per the manufacturer's protocol. After quantifying protein concentration by using BCA Protein Assay Kit (Pierce Biotechnology), ~30 μg of total protein for each sample was separated using a 10% SDS-polyacrylamide gel and transferred onto a PVDF membrane. The membrane was fixed with 0.4% paraformaldehyde (pH=7.0) for 30 min at room temperature^9 and then blocked with 5% (w/v) non-fat dry milk in 1× TBST (1× TBS containing 0.1% Tween-20) for 1 h at room temperature. […] After washing 10 min each with 1× TBST three times, immunocomplex signals of each protein were detected by using a SuperSignal West Pico Chemiluminescent Substrate (Pierce Biotechnology) according to the manufacturer's protocol. The memebrane was then stripped by using 1× Stripping Buffer (200 mM glycine, pH 2.2, 4 mM SDS, 1% (v/v) Tween 20) at room temperature for 15 min, followed by blocking with 5% (w/v) non-fat dry milk at room temperature for 1 h. β-actin was used to normalize the levels of all proteins, measured by incubating with a primary antibody for β-actin (1:5000, 3700S from Cell Signaling Technology) at 4° C. overnight. […]

[3] = test system: MYO15B; assay: MYO15B protein in SH-SY5Y cells by Western blot; settings: 2 μM, 48 h
Method: as §3

[4] = test system: APP; assay: APP protein in SH-SY5Y cells by Western blot
Method: as §3

[5] = test system: SNCA IRE-luciferase transcript; assay: SNCA IRE-luciferase transcript abundance by RT-qPCR; settings: Homo sapiens, 2 μM, read-out: reduction of SNCA IRE-luciferase transcript levels
Method: (§4) RNA extraction and reverse transcription-quantitative polymerase chain reaction (RT-qPCR). Total RNA was extracted from cells using a Quick-RNA MiniPrep Kit (Zymo Research) per the manufacturer's protocol including DNase treatment. For each sample, 200 ng of RNA was reverse transcribed into cDNA by using a qScript cDNA Synthesis Kit (QuantaBio) according to the manufacturer's instructions. To assess the relative mRNA levels, RT-qPCR was performed in triplicate using SYBR Green PCR mater mix (Applied Biosystems) with a Quant Studio 5 Real-Time PCR system. The relative levels of mRNA were calculated by using the ΔΔCt method as previously described.^8
as §1

[6] = test system: TfR mRNA; assay: TfR mRNA in SH-SY5Y cells by RT-qPCR
Method: as §4

[7] = test system: TfR; assay: TfR protein in SH-SY5Y cells by Western blot
Method: as §3

[8] = test system: SNCA IRE-luciferase reporter; assay: wash-out experiment using the luciferase reporter assay; settings: 16 h after compound removal; 2 μM
Source text: as §1, §2

SMILES: CCOC(=O)C1=C(Nc2ccccc2)S/C(=C\c2ccc(OCCOCCOCCOCCNC(=O)CCCOc3ccc(-n4c(SCC(=O)Nc5ccc6cn[nH]c6c5)nnc4-c4ccncc4)cc3)c(O)c2)C1=O [Syn-RiboTAC]
- inhibition in the control luciferase reporter [1]: Neither compound showed inhibition
- effect on ferritin protein level [2]: no effect
- reduction of MYO15B protein level [3]: ~ 20%
- effect on APP protein level [4]: no effect
- inhibition at 2 µM [5]: ~50%
- effect on TfR mRNA level [6]: None of the three transcripts was affected
- effect on TfR protein level [7]: no effect

SMILES: O=C(CSc1nnc(-c2ccncc2)n1-c1ccc(Br)cc1)Nc1ccc2cn[nH]c2c1 [Synucleozid-2.0]
- activity after wash-out (in words) [8]: inactive
